In one experiment the test system is KLF9, Hr, DBP, BHLHB5. Nature of the experiment: Transcription factor induction by T3 in OPCs (Affymetrix Mouse Genomic 430 2.0 chips). Type of experiment: cell-based. As for the experimental part: FIG. 57. KLF9, Hr, DBP, and BHLHB5 are induced in OPCs by T3. Transcription factor probe sets were induced >2-fold by T3 at early time points relative to untreated (+PDGF −T3) controls. OPCs were treated with T3 for either 1 day or 6 days in vitro with T3 (+PDGF +T3), or for only 3 hours with T3 following 1 day or 6 days in vitro in media lacking T3 (+PDGF −T3, then 3 hours +PDGF +T3). All samples were labeled and hybridized to Affymetrix Mouse Genomic 430 2.0 chips.
In OPCs cultured in saturating amounts of mitogens and T3, a small number of transcription factors are rapidly and robustly regulated in response to T3 presentation (as compared to control cultures maintained in mitogens in the absence of T3). These four genes are 1) Kruppel-Like Factor 9 (KLF9), also known as Basic Transcription Element Binding protein 1(BTEB1), 2) basic helix-loop-helix domain containing, class B5 (BHLHB5), also known as Beta3, 3) Hairless, (Hr), or ALUNC, AU, N, ba, bldy, hr, rh, rh-bmh, rhino, and 4) D site albumin promoter binding protein (DBP). KLF9, Hr, and DBP are all induced (2-6 fold) rapidly in OPCs in response to T3, before the OPCs initiate differentiation in response to T3 presentation (FIG. 57).

For the next experiment, the system named is p57^Kip2. Nature of the experiment: p57^Kip2 expression in OPCs (RT-PCR, immunostaining of clones). In kind it is cell-based, rat. The text has this:
p57^Kip2 was either over-expressed or reduced in levels in pure OPCs, and normal OL differentiation and OPC proliferation was observed. To test the necessity of p57^Kip2 in OL differentiation, knockdowns for p57^Kip2 were used to reduce p57^Kip2 levels in OPCs. p57^Kip2 levels were reduced by transfecting OPCs with siRNA directed against the p57^Kip2 transcript, and then cultured the transfected OPCs in media that stimulated OL differentiation. […] OPCs transfected with firefly luciferase- (cont) or p57^Kip2-targeting siRNA pools (Dharmacon) were cultured for 4 D.I.V. in −PDGF +T3 or +PDGF +T3 media and reduction in p57^Kip2 transcript levels by this method was confirmed by RT-PCR (27 cycles).
OL differentiation can be triggered by either by mitogen withdrawal or by the intrinsic timer coupled with exposure to T3 (Barres and Raff, Neuron 12:935-942 (1994)). Whereas either of these conditions will produce mature OLs, the initial genetic programs triggered by these two stimuli are not identical (Tokumoto et al., EMBO J. 20:5261-5268 (2001)). To more precisely determine how p57^Kip2 expression is induced, purified P8 OPCs were subjected to either mitogen withdrawal, T3 exposure, or both differentiation-promoting stimuli simultaneously (FIG. 48I). […]

For experiment [1], the system named is OPCs from the cortex and cerebellum. The experiment in a line: Differentiation of OPCs from the cortex and cerebellum in response to T3. As to conditions: 7 days in vitro +PDGF +T3. Type of experiment: cell-based, rat. As for the experimental part:
OPCs were purified via immunopanning specifically from the cortices or cerebellums of P7 Sprague-Dawley rats. These cells were then plated onto glass coverslips in the presence or absence of mitogens PDGF and NT3 (±PDGF) and presence or absence of thyroid hormone (±T3) and cultured for 3 (−PDGF) or 7 (+PDGF ±T3) days in vitro, with fresh media being supplied every 2-3 days. At the end of this time, cultures were stained for either CNPase expression (less mature) or MBP expression (more mature) as markers of OL differentiation. Percentages of healthy cells (as assessed by healthy nuclei visualized by DAPI staining) expressing indicated markers were quantified for each condition. […] All experiments analyzed in triplicate, ±S.E.M.

With `N[C@@H](Cc1cc(I)c(Oc2ccc(O)c(I)c2)c(I)c1)C(=O)O` [T3, triiodothyronine], the “KLF9, Hr and DBP induction in OPCs in response to T3” value with KLF9, Hr, DBP, BHLHB5 (+PDGF +T3 vs +PDGF −T3 controls) was 2-6 fold. The “transcription factor probe sets (KLF9, Hr, DBP, BHLHB5) induced by T3” value in the experiment with KLF9, Hr, DBP, BHLHB5 (early time points relative to untreated (+PDGF −T3) controls) was over 2 fold. Besides, in the experiment on KLF9, Hr, DBP, BHLHB5 (within 3 hours of T3 exposure), the “KLF9 induction by T3 in OPCs” value turned out to be 4 fold. Moreover, in the experiment on p57^Kip2 (7 days in +PDGF +T3 medium, clonal density), the “clones expressing uniformly high levels of p57^Kip2” value is on record as 15 out of 23. The “p57^Kip2 expression by semi-quantitative RT-PCR” value in the experiment on p57^Kip2 (T3 exposure, 6 DIV, purified P8 OPCs) is reported as “did not induce”. The “expression of mature OL proteins (CNPase, MBP) in cerebellar vs cortical OPCs in response to T3” value in experiment [1] was “similarly”.

For the origin of these results see patent US7993921B2, “Cell cycle regulation and differentiation” (National Institutes of Health (NIH), priority 2007, dated 2011).
